{"source": "patent US20240299317A1", "about": "“Fenfluramine for Treatment of Conditions Associated with Spreading Depolarization” (ZOGENIX INTERNATIONAL LIMITED, priority 2021, published 2024)", "key": {"[1]": {"test_system": "spreading depolarization in mouse brain slices", "experiment": "KCl-induced spreading depolarization threshold in mouse brain slices", "format": "cell-based", "conditions": "for KCl concentration necessary to initiate spreading depolarization (SD threshold): test compound alone in ACSF bath", "procedure": "(§1) In brain slice studies normoxic SD is induced by briefly raising [K^+]o. An ischemic version of SD, the anoxic depolarization (AD), is induced by removing O2/glucose from the aCSF for about 10 min. Intrinsic optical signals (IOSs) represent change in the way tissue scatters light. Light transmittance (LT), essentially unscattered light, is imaged using a charge-coupled device (CCD) to measure second-by-second regional DLT during periods of 1 h or more. The front of the propagating SD or AD event is imaged as an elevated LT, caused by cell swelling. A negative voltage shift, the electrophysiological signature of SD, is simultaneously recorded extracellularly. Normoxic SD is typically the cortical occurrence in migraine, while an anoxic condition is more typical of ischemic attacks and stroke.\n(§2) To determine the threshold for evoked spreading depolarization in mouse brain slices, mice (C57Bl6J, P30-50) were deeply anesthetized by ketamine/xylazine mix (i.p. 85 and […], respectively), cardiac perfused with cutting solution (110 mM N-Methyl-D-glucamine, 10 mM glucose, 6 mM magnesium sulfate, 3 mM KCl, 25 mM sodium bicarbonate, 1.25 mM sodium monophosphate, 0.2 mM calcium chloride, and 0.4 mM ascorbic acid equilibrated with 95% O2/5% CO2), and decapitated. The brain was rapidly extracted, cerebellum removed, forebrain hemisected, and 300 μm thick coronal slices were cut on a vibratome.\nSlices were first incubated in the cutting solution at 37 C for 10 minutes and then transferred to artificial cerebrospinal fluid (“ACSF”: 126 mM sodium chloride, 10 mM glucose, 1 mM magnesium sulfate, 3 mM KCl, 25 mM sodium bicarbonate, 1.25 mM sodium monophosphate, 2 mM calcium chloride, and 0.4 mM ascorbic acid equilibrated with 95% O2/5% CO2).\n(§3) In all in vitro experiments, a pair of slices were then transferred to a recording chamber continuously superfused with ACSF at […] 33-34° C. For pharmacological analysis, slices were pre-incubated in the recording chamber with test compound for at least for 20 minutes. Slow tissue depolarizations (SD) were detected by DC potential shift or imaging of intrinsic optical signals (IOS) in the brain slice. DC potential were recorded using glass pipette electrodes containing ACSF (2-3MO). Signals were amplified with a DC amplifier (MultiClamp 700B), digitized (Digidata 1550B) and analyzed with the Clampfit program ([…]). IOS were detected by acquiring images of brain slices with a CMOS camera (Hamamatsu ORCA). Images were acquired at 0.2-0.5 Hz and analyzed with imageJ software.\nFirst, by incrementally elevating the KCl concentration of bath ACSF every 5 minutes (initial starting concentration of 6 mM, then elevated by +1 mM at 5-minute intervals). The KCl concentration that triggered the first SD was considered as the SD threshold. In experiments using the test drug (fenfluramine), the drug was added to the solution before the KCl challenge."}, "[2]": {"test_system": "spreading depolarization in cortical slices", "experiment": "Oxygen/glucose deprivation (OGD) model of spreading depolarization in brain slices", "format": "cell-based, mouse", "conditions": "for time to onset of spreading depolarization: treatment vs non-treatment", "procedure": "as §1\nas §2, with “vibratome. […]” for “vibratome.”\nas §3, with “For pharmacological analysis, slices were pre-incubated in the recording chamber with test compound for at least for 20 minutes.” left out, “software. […]” for “software.”"}, "[3]": {"test_system": "GABA spontaneous inhibitory postsynaptic currents", "experiment": "GABA spontaneous inhibitory postsynaptic currents (sIPSCs)", "format": "cell-based", "conditions": "compound alone"}, "Sig1R": {"test_system": "Sig1R", "conditions": "with (+)-SKF-10,047; cited from earlier work"}, "[4]": {"target": "Sig1 receptor [Sig1R]/binding immunoglobulin protein (BiP) (Homo sapiens, UniProt Q99720)", "sequence (Q99720 whole entry)": "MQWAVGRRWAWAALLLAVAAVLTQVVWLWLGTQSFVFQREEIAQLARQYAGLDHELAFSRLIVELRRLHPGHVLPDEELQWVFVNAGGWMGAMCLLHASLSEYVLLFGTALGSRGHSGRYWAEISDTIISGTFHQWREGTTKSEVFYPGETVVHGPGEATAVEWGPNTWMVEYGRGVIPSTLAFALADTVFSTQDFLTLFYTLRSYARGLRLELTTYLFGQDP", "conditions": "with PRE-084; cited from earlier work"}, "[5]": {"conditions": "cited from earlier work"}}, "data": [{"compound": "CN1CC2c3ccccc3Oc3ccc(Cl)cc3C2C1", "note": "(stereo not drawn) [asenapine]", "values": [{"measurement": "effect of multi-5-HT receptor antagonist on protective effects of fenfluramine", "setting": "[1]; KCl model, asenapine added to fenfluramine", "result": "did not affect"}]}, {"compound": "COc1ccc2c(c1)[C@]13CCCC[C@@H]1[C@H](C2)N(C)CC3", "note": "[dextromethorphan]", "values": [{"measurement": "KCl concentration necessary to initiate spreading depolarization (SD threshold)", "setting": "[1]; KCl model", "result": "raising the spreading depolarization threshold"}]}, {"compound": "CCNC(C)Cc1cccc(C(F)(F)F)c1", "note": "(stereo not drawn) [fenfluramine, 3-trifluoromethyl-N-ethylamphetamine]", "values": [{"measurement": "time to onset of spreading depolarization", "setting": "[2]; 0% oxygen and 0 mM glucose", "result": "non-significant difference"}, {"measurement": "time to onset of spreading depolarization", "setting": "[2]; 0% oxygen and 2 mM glucose", "result": "significant increase in time to onset"}, {"measurement": "effect on SD under anoxic conditions (AD)", "setting": "[2]; anoxic conditions", "result": "positive effect"}, {"measurement": "GABA spontaneous inhibitory postsynaptic currents", "setting": "[3]", "result": "increase"}, {"measurement": "(+)-SKF-10,047-induced increase in the twitch contraction amplitude", "setting": "Sig1R", "result": "potentiated"}, {"measurement": "Sig1R/BiP dissociation induced by the Sig1R agonist PRE-084", "setting": "[4]", "result": "potentiated"}, {"measurement": "protective effect of fenfluramine with addition of a 5-HT4 antagonist", "setting": "[1]; KCl model, 5-HT4 antagonist added", "result": "only slightly diminished"}, {"measurement": "KCl concentration necessary to initiate spreading depolarization (SD threshold)", "setting": "[1]; KCl model", "result": "raising the KCl concentration necessary to initiate spreading depolarization"}, {"measurement": "additivity or synergism on spreading depolarization threshold", "setting": "[1]; fenfluramine with added serotonin", "result": "lack of additivity or synergism"}, {"measurement": "fenfluramine's effects on spreading depolarization under blockade of the GABA receptors", "setting": "[1]; with blockade of the GABA receptors", "result": "does not abolish"}, {"measurement": "cardiac adverse effects with chronic use", "setting": "[5]; chronic use at doses of 60 to 120 mg, some patients", "result": "cardiac valve abnormalities or pulmonary hypertension"}, {"measurement": "anticonvulsant/antiseizure activity", "setting": "[5]; low dose, Dravet Syndrome and Lennox Gastaut syndrome", "result": "anticonvulsant/antiseizure activity"}]}, {"compound": "NCCc1c[nH]c2ccc(O)cc12", "note": "[serotonin, 5-hydroxytryptamine]", "values": [{"measurement": "GABA spontaneous inhibitory postsynaptic currents", "setting": "[3]", "result": "increase"}]}]}
